In brackets after ≈: the same amount, converted by molar mass. Read-outs that look alike come from different tables or passages of the source. *1 amine or outer side, *2 acyl side, *3 side chain or, on linkers, in order; H or OH if unused. Where a SMILES comes first, the peptide text is derived from it. Bridges are numbered along the chain shown (N, C = ends). [ ]: non-standard residue; d: D form. The star is where a group is joined. ξ: configuration not given here. Phe(3,5-F2) = N[C@@H](Cc1cc(F)cc(F)c1)C(=O)O; NH(4-OCF3-phenyl) = FC(F)(F)Oc1ccc(N*)cc1; ξPro(4S-Me) = C[C@@H]1CNC(C(=O)O)C1; aThr = C[C@H](O)[C@H](N)C(=O)O; X1 = O=C(C1COCCN1[*:1])[*:2]; CO = O=C([*:1])[*:2]; ξP = O=C(O)C1CCCN1
How the values were obtained:
[1] = Cytotoxicity assay, CellTiter-Glo cell viability; type: cell-based; conditions: African green monkey
Method: Cytotoxicity was determined by determining the effect of compounds on cell viability. Vero (kidney epithelial cells; ATCC CCL-81) monolayers were trypsinized and 5000 cells/well were seeded (10-15% confluency) into white-wall, flat bottom 96 well microwell plates (Corning) using enriched Dulbecco's Modified Eagle's Medium (Hyclone: DMEM/High Glucose) containing 10% Fetal Bovine Serum (ATCC-30-2020). Plates were incubated overnight at 37° C. in the presence of 5% CO2. Drug-free media was then replaced with media containing serial dilutions of test compound or DMSO carrier. After an additional 72 hours of incubation, viability was indirectly measured using the CellTiter-Glo® Luminescent Cell Viability (Promega) assay. Assay plates were read at peak emission wavelength of 560 nm using a EnVision® Multilabel Plate Reader (Perkin Elmer) or PHERAstar FS Multilabel reader (BMG, Cary, N.C.). […] USA, www.graphpad.com]. For each experiment, compounds were tested in duplicate. IC50 values presented are the range of two biologically independent experiments.

Sa-ClpP [2] = molecular target: T1, Sa-ClpP (Staphylococcus aureus, UniProt Q2G036); assay: ClpP activation, EnzCheck Protease Assay with Bodipy-FL casein (second described method); type: biochemical, S. aureus
T1 construct: made in house; host or cells: E. coli BL21 (DE3)
T1 sequence (Q2G036 whole entry): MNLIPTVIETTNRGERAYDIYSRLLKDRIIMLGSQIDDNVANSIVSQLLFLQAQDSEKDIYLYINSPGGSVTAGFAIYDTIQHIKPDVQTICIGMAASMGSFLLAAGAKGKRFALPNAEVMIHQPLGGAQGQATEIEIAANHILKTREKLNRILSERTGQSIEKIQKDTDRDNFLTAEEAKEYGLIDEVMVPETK
Method: Alternatively, the assay was carried out using EnzCheck Protease Assay (Molecular Probes, Catalog #E6638). The assay was performed in black 384 well, flat bottom, low volume plates (Greiner Bio-One, Monroe, N.C., catalog #784076). 10 μL of Tris.HCl buffer, pH 8.0 with 0.01% Triton X-100 was pipetted into each well using a Well-Mate (Thermo Scientific, Waltham, Mass.). 0.4 μL test compounds or controls (2% DMSO v/v) were added to each well using a Biomek FX liquid handling robot (Beckman Coulter, Indianapolis Ind.). After addition of test compounds and controls, 10 μL of master mix containing 2 μM Sa-ClpP and 2 μM substrate (Bodipy-FL labeled casein) in Tris*HCl buffer, pH 8.0 with 0.01% (v/v) Triton X-100, was pipetted into each well. All assays were performed in triplicate, under linear velocity conditions. Increase in fluorescent signal following activation of Sa-ClpP by test compounds and controls was measured over time period of 30 mins using filters with excitation at 485±15 nm and emission at 520±25 nm on a PHERAstar FS Multilabel reader (BMG, Cary, N.C.). […] Data analysis was done by measuring rate of casein degradation over time (slopes). Computed degradation rates (slopes) were normalized to positive (ADEP4) or negative (DMSO) controls. Using nonlinear regression curve fitting EC50 values and % activation were determined using the equation “log [agonist]vs. Response-variable slope (four parameters)-symmetrical” in the program Prism 6 (GraphPad Software, La Jolla, Calif. USA, www.graphpad.com).

S. pneumoniae R6 = assay: Minimal inhibitory concentration, microbroth dilution; type: cell-based
Method: Minimal inhibitory concentrations (“MICs”) were determined using the microbroth dilution method according to Clinical Laboratory Standards Institute (CLSI; National, C.F. C. L. S., Methods for Dilution Antimicrobial Susceptibility Tests for Bacteria Grow aerobically-Seventh Edition: Approved Standard M7-A7, CLSI, Wayne, Pa., USA, 2008) and were read by visual inspection. Two fold serial dilutions of test compound in 100 μL of the appropriate broth media were first prepared in 96-well round bottom microtiter plates (Nalgene Nunc International, Rochester, N.Y., USA). […] The plates were then incubated aerobically at 37° C. All strains were incubated overnight. After incubations, in all cases the MIC was recorded as the lowest concentration of drug that prevented bacterial growth. The bacterial strains for which MIC was determined as described in Table 4.

S. aureus USA 300 ΔClpP = assay: as above; type: cell-based, Staphylococcus aureus; conditions: ClpP inactivated strain
Method: Minimal inhibitory concentrations (“MICs”) were determined using the microbroth dilution method according to Clinical Laboratory Standards Institute (CLSI; National, C.F. C. L. S., Methods for Dilution Antimicrobial Susceptibility Tests for Bacteria Grow aerobically-Seventh Edition: Approved Standard M7-A7, CLSI, Wayne, Pa., USA, 2008) and were read by visual inspection. Two fold serial dilutions of test compound in 100 μL of the appropriate broth media were first prepared in 96-well round bottom microtiter plates (Nalgene Nunc International, Rochester, N.Y., USA). An equivalent volume (100 μL) of bacterial broth inocula containing approximately 10^5 bacterial cfu/mL was added to each well to give final concentrations of test compound starting at 200 μM. The plates were then incubated aerobically at 37° C. All strains were incubated overnight. After incubations, in all cases the MIC was recorded as the lowest concentration of drug that prevented bacterial growth. The bacterial strains for which MIC was determined as described in Table 4.

Sa-ClpP [3] = molecular target: T1, Sa-ClpP; assay: ADEP displacement fluorescence polarization assay; type: binding, S. aureus
Method: A fluorescence polarization (FP) assay was used to determine the activity of the disclosed compounds in displacing an ADEP analogue from ClpP. Briefly, the assay was performed in black 384 well, flat bottom, low volume plates (Greiner Bio-One, Monroe, N.C., catalog #784076). 20 μL of a pre-equilibrated (1 hr, room temperature) master mix (1 μM Sa-ClpP, 2% DMSO (v/v) and 50 nM FP probe in Tris*HCl, pH 8.0)) was pipetted into each well using a Well-Mate (Thermo Scientific, Waltham, Mass.). Sa-ClpP was prepared as described above for the ClpP activation assay. The FP probe was ADEP 2591 (structure shown above). The ADEP 2591 comprises a TAMRA fluorophore linked to a core based on modified ADEP 2378 via a short alkyl linker. Using pin transfer, approximately 0.4 μL (2% v/v DMSO) of each compound or control was added per well. After addition of compounds and controls, plates were allowed to incubate for an additional 120 minutes at room temperature. All assays were performed in triplicate. Polarization was monitored using an EnVision Multilabel reader (Perkin-Elmer, Waltham, Mass.) by exciting the FP probe at 530±25 nm, and monitoring fluorescence intensity of both parallel and perpendicular polarized light at 579±25 nm. Readout was in millipolarization units (mP).
Signal gain and G factors were determined in wells containing 20 μM ADEP 2378, which had been previously verified (data not shown) as containing completely unbound ADEP 2591. Data collected was normalized to values obtained from positive (20 μM ADEP 2378) or negative (DMSO) controls. Curves were fit with non-linear regression using the equation “log [inhibitor]vs. Response-variable slope (four parameters)-symmetrical” in the program Prism 6 (GraphPad Software, La Jolla, Calif. USA, www.graphpad.com). The structures for ADEP 2378 and ADEP 2591 are shown above. ADEP 2378 is (E)-N-((S)-1-(((2R,6S,8aS,14aS,20S,23aS)-2,6-dimethyl-5,8,14,19,23-pentaoxooctadecahydro-1H,5H,14H,19H-pyrido[2,1-i]dipyrrolo[2,1-c:2′,1′-1][1]oxa[4,7,10,13]tetraazacyclohexadecin-20-yl)amino)-1-oxo-3-phenylpropan-2-yl)pent-2-enamide. ADEP 2591 is 5-(3-(3-((6S,9S,11aS,17S,20aS)-6,10-dimethyl-5,8,11,16,20-pentaoxo-17-((S)-2-((E)-pent-2-enamido)-3-phenylpropanamido)hexadecahydro-1H,5H,16H-dipyrrolo[2,1-c:2′,1′-1][1]oxa[4,7,10,13]tetraazacyclohexadecin-9-yl)propyl)thioureido)-2-(6-(dimethylamino)-3-(dimethyliminio)-3H-xanthen-9-yl)benzoate.

[4] = Streptococcus pneumoniae, R6; read-out: Minimal Inhibitory Concentration S. pneumoniae R6

Structure (SMILES) | IC50 at 72 h [1] [µM] | EC50 (Sa-ClpP [2]; read-out: ClpP Activation EC50 (converted)) [µM] | MIC (S. pneumoniae R6; [4]) [µM] | Minimal Inhibitory Concentration S. aureus USA 300 ΔClpP (S. aureus USA 300 ΔClpP) [µM] | IC50 (Sa-ClpP [3]; 1 μM Sa-ClpP, 50 nM FP probe ADEP 2591, read-out: ADEP Displacement IC50) [µM] | EC50 (Sa-ClpP [2]) [µM] | IC50 (Sa-ClpP [3]) [µM] | MIC (S. pneumoniae R6; Streptococcus pneumoniae, R6, read-out: Minimal Inhibitory Concentration S. pneumoniae R6) [µM]
C[C@@H]1NC(=O)[C@H](C)N(C)C(=O)C2CCCN2C(=O)[C@@H](NC(=O)[C@H](Cc2cc(F)cc(F)c2)NC(=O)Nc2ccc(OC(F)(F)F)cc2)[C@H](C)OC(=O)C2CCCN2C1=O (stereo partly drawn) [Compound 27, (2S)-3-(3,5-Difluorophenyl)-N-((6S,9S,11aS,17S,18S)-6,9,10,18-Tetramethyl-5,8,11,16,20-Pentaoxohexadecahydro-1H,5H,16H-Dipyrrolo[2,1-C:2′,1′-L][1]Oxa[4,7,10,13]Tetraazacyclohexadecin-17-Yl)-2-(3-(4-(Trifluoromethoxy)Phenyl)Ureido)Propanamide] | 10.5 ± 1.4 | 0.31 ± 0.01 | 0.058 (≈ 0.0486 µg/mL) | 100 | 7.7 ± 0.2 | – | – | –
C[C@H]1CC2C(=O)O[C@@H](C)[C@H](NC(=O)[C@H](Cc3cc(F)cc(F)c3)NC(=O)Nc3ccc(OC(F)(F)F)cc3)C(=O)N3CCCC3C(=O)N(C)[C@@H](C)C(=O)N[C@@H](C)C(=O)N2C1 (stereo partly drawn) [Compound 28, (2S)-3-(3,5-Difluorophenyl)-N-((2S,6S,9S,11aS,17S,18S)-2,6,9,10,18-Pentamethyl-5,8,11,16,20-Pentaoxohexadecahydro-1H,5H,16H-Dipyrrolo[2,1-C:2′,1′-L][1]Oxa 1[4,7,10,13]Tetraazacyclohexadecin-17-Yl)-2-(3-(4-(Trifluoromethoxy)Phenyl)Ureido)Propanamide] | 16.1 ± 2.4 | – | 0.029 (≈ 0.0247 µg/mL) | – | – | 0.19 ± 0.01 | 5.6 ± 0.2 | –
CCc1ccc(NC(=O)N[C@@H](Cc2cc(F)cc(F)c2)C(=O)N[C@@H]2C(=O)N3CCCC3C(=O)N(C)[C@@H](C)C(=O)N[C@@H](C)C(=O)N3CCCC3C(=O)O[C@H]2C)cc1 (stereo partly drawn) [Compound 29, (2S)-3-(3,5-Difluorophenyl)-2-(3-(4-Ethylphenyl)Ureido)-N-((6S,9S,11aS,17S,18S)-6,9,10,18-Tetramethyl-5,8,11,16,20-Pentaoxohexadecahydro-1H,5H,16H-Dipyrrolo[2,1-C:2′,1′-L][1]Oxa[4,7,10,13]Tetraazacyclohexadecin-17-Yl)Propanamide] | 26.8 ± 1.3 | – | 0.031 (≈ 0.0242 µg/mL) | 100 | – | 0.25 ± 0.02 | 5.9 ± 0.2 | –
CCc1ccc(NC(=O)N[C@@H](Cc2cc(F)cc(F)c2)C(=O)N[C@@H]2C(=O)N3CCCC3C(=O)N(C)[C@@H](C)C(=O)N[C@@H](C)C(=O)N3C[C@@H](C)CC3C(=O)O[C@H]2C)cc1 (stereo partly drawn) [Compound 30, (S)-3-(3,5-Difluorophenyl)-2-(3-(4-Ethylphenyl)Ureido)-N-((2S,6S,9S,11aS,17S,18S,20aS)-2,6,9,10,18-Pentamethyl-5,8,11,16,20-Pentaoxohexadecahydro-1H,5H,16H-Dipyrrolo[2,1-C:2′,1′-L][1]Oxa[4,7,10,13]Tetraazacyclohexadecin-17-Yl)Propanamide] | 28.8 ± 3.7 | – | 0.008 (≈ 0.00637 µg/mL) | 50 | – | 0.43 ± 0.02 | 4 ± 0.1 | –
C[C@H]1CC2C(=O)O[C@@H](C)[C@H](NC(=O)[C@H](Cc3cc(F)cc(F)c3)NC(=O)Nc3ccc(OC(F)(F)F)cc3)C(=O)N3C[C@H](O)CC3C(=O)N(C)[C@@H](C)C(=O)N[C@@H](C)C(=O)N2C1 (stereo partly drawn) [Compound 32, (S)-3-(3,5-Difluorophenyl)-N-((2S,6S,9S,11aS,13R,17S,18S,20aS)-13-Hydroxy-2,6,9,10,18-Pentamethyl-5,8,11,16,20-Pentaoxohexadecahydro-1H,5H,16H-Dipyrrolo[2,1-C:2′,1′-L][1]Oxa[4,7,10,13]Tetraazacyclohexadecin-17-Yl)-2-(3-(4-(Trifluoromethoxy)Phenyl)Ureido)Propanamide] | 28.3 ± 0.6 | – | 0.049 (≈ 0.0425 µg/mL) | 100 | – | 0.4 ± 0.01 | 7 ± 0.4 | –
C[C@H]1CC2C(=O)O[C@@H](C)[C@H](NC(=O)[C@H](Cc3cc(F)cc(F)c3)NC(=O)Nc3ccc(OC(F)(F)F)cc3)C(=O)N3CCCC3C(=O)N3CCOCC3C(=O)N[C@@H](C)C(=O)N2C1 (stereo partly drawn) [Compound 34, (S)-3-(3,5-Difluorophenyl)-2-(3-(4-(Trifluoromethoxy)Phenyl)Ureido)-N-((6aS,12S,13S,15aS,17S,21S,23aS)-13,17,21-Trimethyl-6,11,15,20,23-Pentaoxooctadecahydro-6H,11H,15H-[1,4]Oxazino[3,4-I]Dipyrrolo[2,1-C:2′,1′-L][1]Oxa[4,7,10,13]Tetraazacyclohexadecin-12-Yl)Propanamide] ({NH(4-OCF3-phenyl)-CO}-[Phe(3,5-F2)][aThr][ξP][X1]A[ξPro(4S-Me)]; ester 2-C) | 26 ± 2.6 | – | 0.049 (≈ 0.0431 µg/mL) | 50 | – | 0.33 ± 0.01 | 6.1 ± 0.4 | –
CN[C@@H]1[C@H](O)[C@H](NC)[C@H]2O[C@@]3(O)C(=O)C[C@@H](C)O[C@H]3O[C@@H]2[C@H]1O [Spectinomycin, spectinomycin, reference compound] | – | – | – | 25 | – | – | – | 6.3 (≈ 2.09 µg/mL)
